# Laboratory results taken from paper PMC6268944.
# Experiment: amide bond formation (head-to-tail lactamisation): terminal amine + amino acid COOH, EDC.HCl 2.2 equiv, DMAP 0.2 equiv, substrate (HCl salt) and reagent solutions each added dropwise over 1 h
# Details: 14-membered ring, CH2Cl2, 4.0 mM, 2 steps
smiles,measurement,setting,value
"CN1CCN(C)C(=O)c2[nH]cnc2C(=O)NCC(=O)NCC1=O [H-Gly-[N(Me)CH2CH2N(Me)]-CO-(imidazole-4,5-diyl)-CO-Gly-OH]","ring closure, yield over several steps","from CN(CCN(C)C(=O)c1[nH]cnc1C(=O)NCC(=O)O)C(=O)CN, 10.5 h",7%
"C[C@@H]1NC(=O)c2nc[nH]c2C(=O)N(C)CCN(C)C(=O)CNC1=O [H-Gly-[N(Me)CH2CH2N(Me)]-CO-(imidazole-4,5-diyl)-CO-Ala-OH]","ring closure, yield over several steps","from C[C@H](NC(=O)c1nc[nH]c1C(=O)N(C)CCN(C)C(=O)CN)C(=O)O, 21.0 h",7%
"CCN1CCN(CC)C(=O)[C@H](C)NC(=O)[C@@H](C)NC(=O)c2nc[nH]c2C1=O [H-Ala-[N(Et)CH2CH2N(Et)]-CO-(imidazole-4,5-diyl)-CO-D-Ala-OH]","ring closure, yield over several steps","from CCN(CCN(CC)C(=O)[C@H](C)N)C(=O)c1[nH]cnc1C(=O)N[C@H](C)C(=O)O, 14.0 h",8%
CCN1CCN(CC)C(=O)[C@@H](C)NC(=O)[C@@H](C)NC(=O)c2nc[nH]c2C1=O,"ring closure, yield over several steps","from CCN(CCN(CC)C(=O)[C@@H](C)N)C(=O)c1[nH]cnc1C(=O)N[C@H](C)C(=O)O, 14.0 h",9%
"C[C@@H]1NC(=O)[C@@H](C)NC(=O)c2nc[nH]c2C(=O)N(C)CCN(C)C1=O [H-Ala-[N(Me)CH2CH2N(Me)]-CO-(imidazole-4,5-diyl)-CO-D-Ala-OH]","ring closure, yield over several steps","from C[C@H](N)C(=O)N(C)CCN(C)C(=O)c1[nH]cnc1C(=O)N[C@H](C)C(=O)O, 14.0 h",0%
"CCN1CCN(CC)C(=O)[C@H](CC(C)C)NC(=O)[C@H](C)NC(=O)c2nc[nH]c2C1=O [H-Leu-[N(Et)CH2CH2N(Et)]-CO-(imidazole-4,5-diyl)-CO-Ala-OH]","ring closure, yield over several steps","from CCN(CCN(CC)C(=O)[C@@H](N)CC(C)C)C(=O)c1[nH]cnc1C(=O)N[C@@H](C)C(=O)O, 14.0 h",11%
"CCN1CCN(CC)C(=O)[C@H](CC(C)C)NC(=O)[C@@H](C)NC(=O)c2nc[nH]c2C1=O [H-Leu-[N(Et)CH2CH2N(Et)]-CO-(imidazole-4,5-diyl)-CO-D-Ala-OH]","ring closure, yield over several steps","from CCN(CCN(CC)C(=O)[C@@H](N)CC(C)C)C(=O)c1[nH]cnc1C(=O)N[C@H](C)C(=O)O, 14.0 h",0%
"CC(C)C[C@@H]1NC(=O)c2nc[nH]c2C(=O)N(C)CCN(C)C(=O)[C@@H](C)NC1=O [H-D-Ala-[N(Me)CH2CH2N(Me)]-CO-(imidazole-4,5-diyl)-CO-Leu-OH]","ring closure, yield over several steps","from CC(C)C[C@H](NC(=O)c1nc[nH]c1C(=O)N(C)CCN(C)C(=O)[C@@H](C)N)C(=O)O, 14.0 h",11%
"CCN1CCN(CC)C(=O)c2[nH]cnc2C(=O)NCC(=O)NCC1=O [H-Gly-[N(Et)CH2CH2N(Et)]-CO-(imidazole-4,5-diyl)-CO-Gly-OH]","ring closure, yield over several steps","from CCN(CCN(CC)C(=O)c1[nH]cnc1C(=O)NCC(=O)O)C(=O)CN, 14.0 h",0%
"CCN1CCN(CC)C(=O)[C@@H](C)NC(=O)[C@H](C)NC(=O)c2nc[nH]c2C1=O [H-D-Ala-[N(Et)CH2CH2N(Et)]-CO-(imidazole-4,5-diyl)-CO-Ala-OH]","ring closure, yield over several steps","from CCN(CCN(CC)C(=O)[C@@H](C)N)C(=O)c1[nH]cnc1C(=O)N[C@@H](C)C(=O)O, 14.0 h",10%
"CC(C)C[C@@H]1NC(=O)[C@@H](C)NC(=O)c2nc[nH]c2C(=O)N(C)CCN(C)C1=O [H-Leu-[N(Me)CH2CH2N(Me)]-CO-(imidazole-4,5-diyl)-CO-D-Ala-OH]","ring closure, yield over several steps","from CC(C)C[C@H](N)C(=O)N(C)CCN(C)C(=O)c1[nH]cnc1C(=O)N[C@H](C)C(=O)O, 14.0 h",37%
"CC(C)C[C@@H]1NC(=O)c2nc[nH]c2C(=O)N(C)CCN(C)C(=O)[C@H](C)NC1=O [H-Ala-[N(Me)CH2CH2N(Me)]-CO-(imidazole-4,5-diyl)-CO-Leu-OH]","ring closure, yield over several steps","from CC(C)C[C@H](NC(=O)c1nc[nH]c1C(=O)N(C)CCN(C)C(=O)[C@H](C)N)C(=O)O, 14.0 h",12%
"CCN1CCN(CC)C(=O)[C@H](C)NC(=O)CNC(=O)c2nc[nH]c2C1=O [H-Ala-[N(Et)CH2CH2N(Et)]-CO-(imidazole-4,5-diyl)-CO-Gly-OH]","ring closure, yield over several steps","from CCN(CCN(CC)C(=O)[C@H](C)N)C(=O)c1[nH]cnc1C(=O)NCC(=O)O, 14.0 h",0%
"C[C@H]1NC(=O)c2nc[nH]c2C(=O)N(C)CCN(C)C(=O)CNC1=O [H-Gly-[N(Me)CH2CH2N(Me)]-CO-(imidazole-4,5-diyl)-CO-D-Ala-OH]","ring closure, yield over several steps","from C[C@@H](NC(=O)c1nc[nH]c1C(=O)N(C)CCN(C)C(=O)CN)C(=O)O, 18.0 h",17%
"CC(C)C[C@@H]1NC(=O)CNC(=O)c2nc[nH]c2C(=O)N(C)CCN(C)C1=O [H-Leu-[N(Me)CH2CH2N(Me)]-CO-(imidazole-4,5-diyl)-CO-Gly-OH]","ring closure, yield over several steps","from CC(C)C[C@H](N)C(=O)N(C)CCN(C)C(=O)c1[nH]cnc1C(=O)NCC(=O)O, 14.0 h",0%
"CCN1CCN(CC)C(=O)[C@H](CC(C)C)NC(=O)CNC(=O)c2nc[nH]c2C1=O [H-Leu-[N(Et)CH2CH2N(Et)]-CO-(imidazole-4,5-diyl)-CO-Gly-OH]","ring closure, yield over several steps","from CCN(CCN(CC)C(=O)[C@@H](N)CC(C)C)C(=O)c1[nH]cnc1C(=O)NCC(=O)O, 14.0 h",8%
C[C@H]1NC(=O)c2nc[nH]c2C(=O)N(C)CCN(C)C(=O)[C@@H](C)NC1=O,"ring closure, yield over several steps","from C[C@@H](N)C(=O)N(C)CCN(C)C(=O)c1[nH]cnc1C(=O)N[C@H](C)C(=O)O, 14.0 h",0%
"CC(C)C[C@@H]1NC(=O)[C@H](C)NC(=O)c2nc[nH]c2C(=O)N(C)CCN(C)C1=O [H-Leu-[N(Me)CH2CH2N(Me)]-CO-(imidazole-4,5-diyl)-CO-Ala-OH]","ring closure, yield over several steps","from CC(C)C[C@H](N)C(=O)N(C)CCN(C)C(=O)c1[nH]cnc1C(=O)N[C@@H](C)C(=O)O, 14.0 h",14%
"C[C@H]1NC(=O)CNC(=O)c2nc[nH]c2C(=O)N(C)CCN(C)C1=O [H-D-Ala-[N(Me)CH2CH2N(Me)]-CO-(imidazole-4,5-diyl)-CO-Gly-OH]","ring closure, yield over several steps","from C[C@@H](N)C(=O)N(C)CCN(C)C(=O)c1[nH]cnc1C(=O)NCC(=O)O, 14.0 h",0%
"C[C@@H]1NC(=O)c2nc[nH]c2C(=O)N(C)CCN(C)C(=O)[C@@H](C)NC1=O [H-D-Ala-[N(Me)CH2CH2N(Me)]-CO-(imidazole-4,5-diyl)-CO-Ala-OH]","ring closure, yield over several steps","from C[C@H](NC(=O)c1nc[nH]c1C(=O)N(C)CCN(C)C(=O)[C@@H](C)N)C(=O)O, 14.0 h",22%
"CCN1CCN(CC)C(=O)c2[nH]cnc2C(=O)N[C@@H](C)C(=O)NCC1=O [H-Gly-[N(Et)CH2CH2N(Et)]-CO-(imidazole-4,5-diyl)-CO-Ala-OH]","ring closure, yield over several steps","from CCN(CCN(CC)C(=O)c1[nH]cnc1C(=O)N[C@@H](C)C(=O)O)C(=O)CN, 14.0 h",9%
"C[C@@H]1NC(=O)CNC(=O)c2nc[nH]c2C(=O)N(C)CCN(C)C1=O [H-Ala-[N(Me)CH2CH2N(Me)]-CO-(imidazole-4,5-diyl)-CO-Gly-OH]","ring closure, yield over several steps","from C[C@H](N)C(=O)N(C)CCN(C)C(=O)c1[nH]cnc1C(=O)NCC(=O)O, 14.0 h",0%
"C[C@@H]1NC(=O)c2nc[nH]c2C(=O)N(C)CCN(C)C(=O)[C@H](C)NC1=O [H-Ala-[N(Me)CH2CH2N(Me)]-CO-(imidazole-4,5-diyl)-CO-Ala-OH]","ring closure, yield over several steps","from C[C@H](N)C(=O)N(C)CCN(C)C(=O)c1[nH]cnc1C(=O)N[C@@H](C)C(=O)O, 14.0 h",32%
"CC(C)C[C@@H]1NC(=O)c2nc[nH]c2C(=O)N(C)CCN(C)C(=O)CNC1=O [H-Gly-[N(Me)CH2CH2N(Me)]-CO-(imidazole-4,5-diyl)-CO-Leu-OH]","ring closure, yield over several steps","from CC(C)C[C@H](NC(=O)c1nc[nH]c1C(=O)N(C)CCN(C)C(=O)CN)C(=O)O, 17.5 h",37%
"CCN1CCN(CC)C(=O)[C@@H](C)NC(=O)CNC(=O)c2nc[nH]c2C1=O [H-D-Ala-[N(Et)CH2CH2N(Et)]-CO-(imidazole-4,5-diyl)-CO-Gly-OH]","ring closure, yield over several steps","from CCN(CCN(CC)C(=O)[C@@H](C)N)C(=O)c1[nH]cnc1C(=O)NCC(=O)O, 14.0 h",3%
"CCN1CCN(CC)C(=O)[C@H](CC(C)C)NC(=O)[C@H](CC(C)C)NC(=O)c2nc[nH]c2C1=O [H-Leu-[N(Et)CH2CH2N(Et)]-CO-(imidazole-4,5-diyl)-CO-Leu-OH]","ring closure, yield over several steps","from CCN(CCN(CC)C(=O)[C@@H](N)CC(C)C)C(=O)c1[nH]cnc1C(=O)N[C@@H](CC(C)C)C(=O)O, 14.0 h",0%
"CCN1CCN(CC)C(=O)c2[nH]cnc2C(=O)N[C@H](C)C(=O)NCC1=O [H-Gly-[N(Et)CH2CH2N(Et)]-CO-(imidazole-4,5-diyl)-CO-D-Ala-OH]","ring closure, yield over several steps","from CCN(CCN(CC)C(=O)c1[nH]cnc1C(=O)N[C@H](C)C(=O)O)C(=O)CN, 14.0 h",8%
"CCN1CCN(CC)C(=O)[C@H](C)NC(=O)[C@H](C)NC(=O)c2nc[nH]c2C1=O [H-Ala-[N(Et)CH2CH2N(Et)]-CO-(imidazole-4,5-diyl)-CO-Ala-OH]","ring closure, yield over several steps","from CCN(CCN(CC)C(=O)[C@H](C)N)C(=O)c1[nH]cnc1C(=O)N[C@@H](C)C(=O)O, 14.0 h",7%
